The text below walks through data of patent publication US20220267390A1, “MPS MODIFIED PEPTIDES AND USE THEREOF” (The Regents of the University of California, priority 2019, published 2022).

The subject of one assay is normal fibroblasts. Put plainly: Normal lung fibroblast proliferation (MTS/MTT assay). As to conditions: 1 μM. Type of assay: cell-based, human. On the procedure:
(§1) FIG. 14: Comparison of MPS-12042 (SEQ ID NO: 45) versus know tyrosine kinase inhibitor (TKLs) on the treatment of IPF fibroblast cells. Both normal and IPF lung fibroblast cells were treated with various drugs. After 72 hours, cells were subjected to MTT assays and IC50 for each drug was determined.
Human primary fibroblast cells were obtained from airway tissues provided from the UC Davis Medical Hospital (Sacramento, Calif.) with consent. The protocol for human tissue procurement and usage were periodically reviewed and approved by the University Human Subject Research Review Committee. Primary fibroblast cell lines, IPF-1 and IPF-2 cells, were established from IPF patients. […]
Cells were seeded onto 96-well plates at a density of 5-10×10^3 cells per well and cultured for the indicated treatment. Cell proliferation was evaluated using a MTS assay kit (Promega, Madison, Wis.). Twenty microliters of the combined MTS/PMS solution was added into each well, incubated for 3 hours at 37° C., and the absorbance was measured at 490 nm by using an ELISA reader. […] After 72 hours, both attached and detached cells were collected and then stained with 0.2% trypan blue (0.1% final concentration), and the number of trypan blue-positive and -negative cells was counted using a haemocytometer under low-power microscopy. […]
On the technique in general: Formazan colour is commonly taken as a measure of viable cells.

Another assay relates to IPF fibroblast cells. Put plainly: cells. The class given is cell-based, human. On the procedure:
as §1
Human primary fibroblast cells were obtained from airway tissues provided from the UC Davis Medical Hospital (Sacramento, Calif.) with consent. The protocol for human tissue procurement and usage were periodically reviewed and approved by the University Human Subject Research Review Committee. Primary fibroblast cell lines, IPF-1 and IPF-2 cells, were established from IPF patients. Cells were obtained from lung biopsies and the diagnosis of IPF was supported by patient history, physical examination, pulmonary function tests, and typical high-resolution chest computed tomography findings of IPF. […] All patients fulfilled the criteria for the diagnosis of IPF as established by the American Thoracic Society and European Respiratory Society. Non-fibrotic primary control adult human lung fibroblast lines, Normal-1 and Normal-2 cells were used. These lines were established from normal lung tissue or histologically normal lung tissue adjacent to carcinoid tumor. The IPF cell line, LL97A, was purchased from the American Type Culture Collection (ATCC) (Manassas, Va.). Lung fibroblast lines were cultured in high-glucose DMEM or RPMI-1640 medium with 10% fetal bovine serum and 1% penicillin-streptomycin at 37° C. in a humidified atmosphere of 5% CO2. Fibroblasts were used between passages 4 and 8. Cells were characterized as fibroblasts as described^26.
Cells were seeded onto 96-well plates at a density of 5-10×10^3 cells per well and cultured for the indicated treatment. Cell proliferation was evaluated using a MTS assay kit (Promega, Madison, Wis.). Twenty microliters of the combined MTS/PMS solution was added into each well, incubated for 3 hours at 37° C., and the absorbance was measured at 490 nm by using an ELISA reader. For Trypan blue test, cells were plated on 12-well plates and treated with the indicated chemotherapeutic agents. After 72 hours, both attached and detached cells were collected and then stained with 0.2% trypan blue (0.1% final concentration), and the number of trypan blue-positive and -negative cells was counted using a haemocytometer under low-power microscopy. For colony-forming assays, 200 cells were seeded in each well of six-well plates. IPF-1 or IPF-2 primary cells were treated with peptides at the indicated concentrations for 10 days. Colonies were stained using 0.001% crystal violet and the number of colonies with a diameter greater than 0.5 mm was counted under an inverted microscope.

Another assay concerns H1650 cells. The class given is cell-based. On the procedure: IC50 (half maximal inhibitory concentration; μM) values in lung cancer cells. […] The residues marked in red/bold are D-isoforms of amino acids (SEQ ID NOS: 57, 48-54, 40-42 45 and 47 in order of appearance).
Molecular basis of MPS peptide and its potential for increasing nintedanib efficacy. […] A kinetic assay confirmed that this peptide binds PIP2 with a dissociation constant of 17.64 nM (FIG. 10B). As expected, a decrease of PIP3 pools in whole cell lysates of MPS-treated IPF fibroblasts was observed (FIG. 10C), supporting the notion that MPS peptide is able to inhibit AKT activation through trapping PIP2. In view of adverse effects of the current IPF therapeutic nintedanib^9, 10, there is an urgent clinical need to improve the efficacy of such treatment in IPF. Since the TGF-β receptor is not a direct target of nintedanib, targeting an element of TGF-β signaling in tandem with nintedanib administration circumvents the shortcomings of nintedanib monotherapy. […] Based on the above observations, it is assumed that TGF-β-directed phospho-MARCKS is a bypass mechanism of activating PI3K/AKT signaling (FIG. 11B); therefore, it seems reasonable that MARCKS inhibition by MPS treatment may improve nintedanib efficacy, permitting lower doses of nintedanib to be used. To this end, the possibility of a synergistic interaction between MPS and nintedanib in order to circumvent the shortcomings of nintedanib monotherapy was tested. […] Furthermore, the Chou and Talalay CI (combination index) method^25 was used to evaluate the therapeutic interactions between nintedanib and MPS peptide. […] Particularly, the values were lower than 1 at ED50, approximately 1 at ED75, and above 1 at ED90 (data not shown). Thus, the combination effect was dose-dependently correlated with the components, and therefore low dose nintedanib in combination with low dose of MPS presents a synergistic effect on cell proliferation. […] On the basis of the sequences of MPS peptide, the rearrangement of PIP2-binding sites in this peptide were designed and synthesized with the intention of enhancing the efficacy and stability of the MPS peptide. FIG. 13 lists the sequences of various MPS derivatives. In light of the cleavage sites of various proteases and PIP2 binding motifs, Applicant replaced some L-isoform amino acids with D-isoform and these peptides were named as MPS-12042 and MPS-22026. To further validate the efficacy of the above MPS derivatives, Applicant performed a dose-course analysis of H1650 cells undergoing each MPS derivative treatment.

For assay [1], the system named is bleomycin-induced pulmonary fibrosis. Put plainly: Bleomycin-induced pulmonary fibrosis. Type of assay: in vivo, C57BL/6J mice. As to conditions: 7 mg/kg i.p. every two days, against nintedanib (28 mg/kg) and MPS peptide (28 mg/kg). On the procedure:
FIGS. 20A and 20B show suppressive effects of MPS peptide on pulmonary fibrosis in vivo. C57BL/6 mice were intraperitoneally given either PBS, nintedanib (28 mg/kg), MPS peptide (28 mg/kg) or MPS-12042 (7 mg/kg) at the dosage of every two days after 9 days of intratracheal exposure with one shot of saline or bleomycin (33 μg in […] of saline, n=5). (FIG. 20A) Representative Masson trichrome and immunohistochemical staining of phospho-MARCKS (Ser159/163) and phospho-AKT (Ser473) (n=6). (FIG. 20B) Hydroxyproline level in the left lung of mice as described above was determined by a hydroxyproline ELISA assay (mean±SD, *p<0.05).
MPS peptide potentially serves as an antifibrotic agent in bleomycin-induced pulmonary fibrosis. Bleomycin remains the standard agent for induction of experimental pulmonary fibrosis in animals^23. Thus, 8-week-old female C57BL/6J mice received saline or bleomycin intratracheally (33 μg in […] of saline) as previously described^23. Lung specimens from bleomycin- or saline-treated mice were collected and subjected to immunofluorescence staining. […] Next, lung fibroblast cells isolated from saline- or bleomycin-treated mice (two mice fibroblast cell lines were gifts from Dr. Sem H. Phan, University of Michigan School of Medicine, MI) were incubated with either 100 μM control or MPS peptide for 48 hours. […]

Structures are written as SMILES. Where a SMILES comes first, the peptide text is derived from it. [ ]: non-standard residue; d: D form.

On to `CC(C)C[C@@H](NC(=O)[C@@H](CCCCN)NC(=O)[C@@H](Cc1ccccc1)NC(=O)[C@H](C)NC(=O)[C@H](CCCCN)NC(=O)[C@@H](CCCCN)NC(=O)[C@@H](Cc1ccccc1)NC(=O)[C@H](C)NC(=O)[C@@H](Cc1ccccc1)NC(=O)[C@@H](CCCNC(=N)N)NC(=O)[C@H](CCCCN)NC(=O)[C@H](CCCCN)NC(=O)[C@H](CCCCN)NC(=O)[C@H](CCCCN)NC(=O)[C@@H](N)CCCCN)C(=O)N[C@@H](C)C(=O)NCC(=O)N[C@H](Cc1ccccc1)C(=O)N[C@H](C)C(=O)N[C@H](Cc1ccccc1)C(=O)N[C@H](CCCCN)C(=O)N[C@@H](CCCCN)C(=O)N[C@@H](CC(N)=O)C(=O)N[C@H](CCCCN)C(=O)N[C@@H](CCCCN)C(=O)O` [MPS-12042] (H-KKKKK[dR][dF]A[dF][dK]KA[dF][dK][dL]AG[dF][dA][dF][dK]KN[dK]K-OH; N-terminus and C-terminus assumed), for which the decreased cell proliferation result in the assay with normal fibroblasts is given as “not in normal fibroblasts”; in the assay on IPF fibroblast cells (1 μM, IPF fibroblast), 50%. Moreover, the IC50 (commonly the concentration at which inhibition is half-maximal) is 1 to 1.5 µM in the assay with IPF fibroblast cells (72 h) and 6 µM with H1650 cells. In addition, in assay [1], the “attenuating phospho-MARCKS and phospho-AKT, reducing overall fibrosis and extracellular matrix deposition in mouse lungs” value is listed as “superior efficacy”.
